Data published in article PMC8391421, “Identification of Novel Positive Allosteric Modulators of Neurotrophin Receptors for the Treatment of Cognitive Dysfunction” (Cells, 2021).

System: extracellular neurotransmitter levels in ventral hippocampus
Experiment: In vivo microdialysis of neurotransmitters in ventral hippocampus
Parameters: species or system rat
Experimental: The microdialysis experiments were conducted using Pronexus AB, Bromma, Sweden (ethical permit N24/14) on awake, freely moving Sprague Dawley rats (n = 6, 7–8 weeks old from Janvier Labs, Le Genest-Saint-Isle, France) as previously described. On the day of the microdialysis experiment, the rat was in its home cage and placed into a frame of a single-beam locomotor activity monitoring system. Locomotor activity of rats undergoing microdialysis sampling was recorded simultaneously in 5-min intervals. A microdialysis probe (Eicom A-I: 0.22 mm O.D., 4 mm membrane length with 50 kDa cut-off) was inserted into the guide cannula of the awake rat. The probe was connected with fluorinated ethylene propylene (FEP) tubing (0.1 mm I.D.) to the balancing arm of the CMA 120 system for freely moving animals (CMA/Microdialysis) equipped with a 2-channel swivel (Microbiotech/se AB, Stockholm, Sweden). […] Concentrations of acetylcholine (ACh) and glutamate (Glu) in the microdialysis samples were measured using ultra-high performance liquid chromatography tandem mass spectrometry (UHPLC-MS/MS), whereas the levels of the monoamines dopamine (DA), noradrenaline (NA), and […] (5-HT) in the microdialysates were measured using ion-exchange narrow bore column liquid chromatography with electrochemical detection as described elsewhere. […]

## Cc1cc(-n2c(=O)[nH]c(=O)n(C)c2=O)ccc1Oc1ccc(S(=O)(=O)C(F)(F)F)cc1 [ACD855, Toltrazuril-sulfone]
Local infusion of 30 µM over four hours, freely moving rats, vs vehicle (aCSF)
  increase in extracellular ACh levels in vHPC: 40%
Local infusion of 30 µM, vHPC
  levels of glutamate, noradrenaline, dopamine and 5-hydroxytryptamine: not affected
